Assay [1] deals with T1, HePTP (Homo sapiens, UniProt P35236).
T1 sequence (P35236 1-360): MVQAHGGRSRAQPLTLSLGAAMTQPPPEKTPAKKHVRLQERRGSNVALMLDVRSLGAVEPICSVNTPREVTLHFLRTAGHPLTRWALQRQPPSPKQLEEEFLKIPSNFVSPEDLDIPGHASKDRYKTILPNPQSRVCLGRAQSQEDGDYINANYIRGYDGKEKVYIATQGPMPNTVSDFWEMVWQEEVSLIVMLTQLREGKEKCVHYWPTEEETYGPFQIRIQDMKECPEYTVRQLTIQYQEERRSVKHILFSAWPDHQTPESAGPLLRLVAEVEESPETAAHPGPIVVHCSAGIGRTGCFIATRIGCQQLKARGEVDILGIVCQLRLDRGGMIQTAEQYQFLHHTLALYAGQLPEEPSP
The assay can be described thus: HePTP HTS primary screen (colorimetric pNPP / Biomol Green). The class given is biochemical. Particulars: 20 μM compound; for inhibition at 20 µM: read-out: % Inhib. at 20 μM. The text has this: (§1) The following assay can be conducted manually or can be carried out by a robotic station.
For this assay, HePTP catalyzes the following reaction:
wherein p-nitrophenyl phosphate serves as a substrate and is cleaved to form p-nitrophenol and phosphate. The liberated phosphate complexes with the Biomol Green™ reagent to provide a quantitative colorimetric value for the amount of substrate cleaved.
(§2) Compounds are then serially diluted in 100% DMSO, and then diluted with water to 10% final DMSO concentration.
(§3) The primary screening actives can then proceed to the dose-response confirmation stage.

Assay [2] concerns the target T1, HePTP. The assay can be described thus: HePTP dose-response confirmation screening. The class given is biochemical. Particulars: for IC50: 10 concentrations, 2-fold serial dilution, pNPP substrate; for n / nH (Hill coefficient): Hill coefficient of the dose-response curve.
Description: as §1, §2, §3
* n represents the Hill coefficient. This coefficient is derived from the Hill equation which has the formula: […]
wherein θ is the fraction of ligand binding sites filled, L is the inhibitor concentration, Ka is the inhibitor concentration producing half occupation of the ligand binding sites, and n is the Hill coefficient.

Structures can show the parent of a compound that is named as a salt.

Here are results for 32 molecules from patent US20120095032A1, “METHODS FOR TREATING LEUKEMIA AND MYELODYSPLASTIC SYNDROME, AND METHODS FOR IDENTIFYING AGENTS FOR TREATING SAME” (Sanford-Burnham Medical Research Institute, priority 2007, published 2012).

Regarding `O=C(c1ccc(=O)oc1)N1CCOCC1`, the inhibition at 20 µM on HePTP [1] is 54.1%. For the same molecule, on HePTP [2], the IC50 came to 990 nM and the “n / nH (Hill coefficient)” value is listed as 1.02.
The like results for `O=C(O)c1ccccc1-c1ccc(/C=c2\sc3nc4cc(Br)cnc4n3c2=O)o1` were, in that order, 102%, 1790 nM and 7.56.
For `CCC1=NC2Sc3ccccc3C(=O)C2C(=O)N1Cc1ccco1` (centres unmarked), the inhibition at 20 µM on HePTP [1] was 79.4%. Moreover, at HePTP [2], it took 15100 nM to reach half-maximal inhibition (IC50) and the “n / nH (Hill coefficient)” value came out at 1.27.
The matching figures for `CSc1nc(N(CCO)CCO)c2sc3nc(-c4ccco4)c4c(c3c2n1)CCC4`: 62.5%, 410 nM and 2.28.
The matching figures for `COc1ccc(Cn2c(C)nc3c(c2=O)c2nc4ccccc4nc2n3Cc2ccco2)cc1`: 104%, 6860 nM and 2.17.
As for `CCn1c(SC(C)C(=O)O)nc2c(c1=O)C1=C(CCC1)C2` (centres unmarked), the inhibition at 20 µM at HePTP [1] was 86%. Moreover, on HePTP [2], inhibition was half-maximal at 1690 nM (IC50) and the “n / nH (Hill coefficient)” value is given as 3.77.
The like results for `CCn1c(SCC(=O)O)nc2c(c1=O)C1=C(CCC1)C2` were, in that order, 102%, 1290 nM and 4.48.
As for `COc1ccc2c(c1)=CC(=C1N=C(c3ccc(F)cc3)ON1)C(=O)N=2` (stereo in doubt) [(3Z)-3-[5-(4-fluorophenyl)-1,2,4-oxadiazol-3-ylidene]-6-methoxy-quinolin-2-one], the inhibition at 20 µM on HePTP [1] amounted to 99.2%. Further, at HePTP [2], inhibition was half-maximal at 2180 nM (IC50) and the “n / nH (Hill coefficient)” value was determined as 2.73.
Turning to `COc1ccc2c(c1)=CC(=C1N=C(c3ccccc3)ON1)C(=O)N=2` (stereo in doubt) [(3Z)-6-methoxy-3-(5-phenyl-1,2,4-oxadiazol-3-ylidene)quinolin-2-one], the inhibition at 20 µM on HePTP [1] was determined as 77.1%. In addition, on HePTP [2], the IC50 is 4230 nM and the “n / nH (Hill coefficient)” value came to 4.29.
On to `N#Cc1c(N2CCCC2)nc(N)c2c(N)nc(N3CCCC3)cc12` [1,8-Diamino-3,6-dipyrrolidin-1-yl-2,7-naphthyridine-4-carbonitrile], for which, at HePTP [1], the inhibition at 20 µM was found to be 61.3%. Further, at HePTP [2], the IC50 was 6960 nM and the “n / nH (Hill coefficient)” value stood at 0.99.
The like results for `O=C1CC(=O)N(Cc2ccco2)C(=O)N1` [1-(2-Furylmethyl)-1,3-diazinane-2,4,6-trione] were, in that order, 84.9%, 1310 nM and 1.67.
The matching figures for `c1coc(-c2nc(-c3ccco3)c(-c3ccco3)nc2-c2ccco2)c1` [2,3,5,6-tetrakis(2-furyl)pyrazine]: 74.1%, 1140 nM and 2.26.
The matching figures for `Cc1c(N2C(=O)c3ccc4c5c(ccc(c35)C2=O)CC4)c(=O)n(-c2ccccc2)n1C` [2-(1,5-Dimethyl-3-oxo-2-phenyl-2,3-dihydro-1H-pyrazol-4-yl)-6,7-dihydro-1H-indeno[6,7,1-def]isoquinoline-1,3(2H)-dione]: 93.1%, 1170 nM and 2.23.
Turning to `Cc1ccc(C)n1C(Cc1ccccc1)C(=O)O` (centres unmarked) [2-(2,5-Dimethylpyrrol-1-yl)-3-phenyl-propanoic acid], at HePTP [1], the inhibition at 20 µM was 102%. The molecule further yielded an IC50 against HePTP [2] of 420 nM.
Regarding `O=C(O)C(O)c1ccco1` (centres unmarked) [2-(2-Furyl)-2-hydroxy-acetic acid], the inhibition at 20 µM on HePTP [1] stood at 100%. Further, at HePTP [2], the IC50 is 2300 nM and the “n / nH (Hill coefficient)” value was 1.79.
The like results for `Cc1cccc(Nc2nn3c(=O)c4ccccc4nc3s2)c1` [2-(3-Methylphenylamino)-5H-[1,3,4]thiadiazolo[2,3-b]quinazolin-5-one] were, in that order, 53.9%, 2740 nM and 1.32.
The like results for `COc1ccc(N2Cc3cccc(C(=O)O)c3C2=O)cc1` [2-(4-Methoxyphenyl)-3-oxo-1H-isoindole-4-carboxylic acid] were, in that order, 57.2%, 1170 nM and 3.7.
The like results for `O=C(COC(=O)c1cccc(S(=O)(=O)N2CCN(c3ccccc3)CC2)c1)NCc1ccco1` [2-Furylmethylcarbamoylmethyl 3-(4-phenylpiperazin-1-yl)sulfonylbenzoate] were, in that order, 50.7%, 4970 nM and 2.07.
`Cc1ccc(C)n1-c1cccc(C(=O)O)c1` [3-(2,5-Dimethylpyrrol-1-yl)benzoic acid]: the inhibition at 20 µM on HePTP [1] was 102%. Moreover, at HePTP [2], the IC50 is 1300 nM and the “n / nH (Hill coefficient)” value worked out at 2.59.
The matching figures for `O=C(CCS(=O)(=O)c1ccc(Br)cc1)NCc1cccs1` [3-(4-Bromophenyl)sulfonyl-N-(thiophen-2-ylmethyl)propanamide]: 103%, 68300 nM and 1.24.
The matching figures for `c1ccc(CSc2nnc(-c3ccco3)c(-c3ccco3)n2)cc1` [3-Benzylsulfanyl-5,6-bis(2-furyl)-1,2,4-triazine]: 53.9%, 2740 nM and 1.32.
The like results for `O=C(O)c1cccc(-n2cccc2/C=N/O)c1` [3-[2-(Hydroxyiminomethyl)pyrrol-1-yl]benzoic acid] were, in that order, 58.1%, 1400 nM and 1.45.
In the case of `COc1ccc(Br)cc1/C=c1\sc2nc(-c3ccco3)nn2c1=O` [3-[(5-Bromo-2-methoxy-phenyl)methylidene]-7-(2-furyl)-4-thia-1,6,8-triazabicyclo[3.3.0]octa-5,7-dien-2-one], the inhibition at 20 µM on HePTP [1] amounted to 95.3%. In addition, at HePTP [2], it took 420 nM to reach half-maximal inhibition (IC50) and the “n / nH (Hill coefficient)” value worked out at 2.5.
On to `NC(=O)c1c(NC(=O)CSc2nnc(-c3ccco3)n2-c2ccccc2)sc2c1CCC2` [3-[[2-[[5-(2-furyl)-4-phenyl-1,2,4-triazol-3 - yl]sulfanyl]acetyl]amino]-4-thiabicyclo[3.3.0]octa-2,9-diene-2-carboxamide], for which the “% Inhib. at 20 μM” value at HePTP [1] was 97.5%. Besides, at HePTP [2], the IC50 is 10600 nM and the “n / nH (Hill coefficient)” value worked out at 4.06.
As for `CC1(C)CCCN(C(=O)c2coc(=O)c(Br)c2)C1` [3-bromo-5-(3,3-dimethylpiperidine-1-carbonyl)pyran-2-one], at HePTP [1], the inhibition at 20 µM is 102%. In addition, on HePTP [2], the IC50 was determined as 400 nM and the “n / nH (Hill coefficient)” value is 2.66.
The matching figures for `COc1cccc(C(=O)NC2CC3CCCC(C2)N3CC(=O)Nc2ccccc2)c1` (centres unmarked) [3-methoxy-N-[9-(phenylcarbamoylmethyl)-9-azabicyclo[3.3.1]non-7-yl]benzamide hydrochloride]: 103%, 4670 nM and 4.22.
Turning to `O=C(O)c1cc(O)c2c(c1)C(=O)c1cccc(O)c1C2=O` [4,5-Dihydroxy-9,10-dioxo-anthracene-2-carboxylic acid], on HePTP [1], the inhibition at 20 µM stood at 64.2%. Also, on HePTP [2], the IC50 came out at 19600 nM and the “n / nH (Hill coefficient)” value is recorded as 0.76.
Consider `Cc1cc(C)n(-c2nc(Nc3ccccc3)nc(-n3nc(C)cc3C)n2)n1` [4,6-bis(3,5-Dimethylpyrazol-1-yl)-N-phenyl-1,3,5-triazin-2-amine], for which the inhibition at 20 µM at HePTP [1] amounted to 50.5%. Besides, at HePTP [2], the IC50 was 21600 nM and the “n / nH (Hill coefficient)” value stood at 2.83.
Regarding `Cc1cc(C(=O)O)ccc1-n1c(C)ccc1C` [4-(2,5-Dimethylpyrrol-1-yl)-3-methyl-benzoic acid], the inhibition at 20 µM on HePTP [1] came to 103%. Moreover, on HePTP [2], the midpoint of inhibition, the IC50, lay at 700 nM and the “n / nH (Hill coefficient)” value amounted to 2.09.
The matching figures for `O=C1Nc2ccccc2SC(c2ccccc2)C1O` (centres unmarked) [4-Hydroxy-3-phenyl-2-thia-6-azabicyclo[5.4.0]undeca-7,9,11-trien-5-one]: 67.2%, 1150 nM and 2.13.
The matching figures for `CN(C)c1ccc(-c2nn3c(-c4ccc(Cl)cc4Cl)nnc3s2)cc1` [4-[2-(2,4-Dichlorophenyl)-6-thia-1,3,4,8-tetrazabicyclo[3.3.0]octa-2,4,7-trien-7-yl]-N,N-dimethyl-aniline]: 64.3%, 78400 nM and 2.71.
`O=C(O)CCC(=O)N1CCc2cc(S(=O)(=O)N3CCN(c4ccc(F)cc4)CC3)ccc21` [4-[5-[4-(4-Fluorophenyl)piperazin-1-yl]sulfonyl-2,3-dihydroindol-1-yl]-4-oxo-butanoic acid]: on HePTP [1], the inhibition at 20 µM amounted to 58.8%. Moreover, on HePTP [2], inhibition was half-maximal at 3770 nM (IC50) and the “n / nH (Hill coefficient)” value is given as 7.72.

By IC50 is commonly meant the concentration needed to halve the response being measured. Low values mean greater potency, high ones weaker potency.
